{"source": "paper PMC7435868", "about": "“Structure-Based Virtual Screening, Synthesis and Biological Evaluation of Potential FAK-FAT Domain Inhibitors for Treatment of Metastatic Cancer” (Molecules, 2020)", "key": {"MDA-MB-231 [1]": {"tested_on": "MDA-MB-231", "test": "Cell viability assay (CellTiter Glo), MDA-MB-231", "type": "cell-based", "settings": "Homo sapiens, 72 h incubation, mean of independent triplicate experiments, read-out: In vitro anti-proliferative activity IC50, MDA-MB-231 ER- PR- HER-", "procedure": "(§1) The antiproliferative activity of compound I as well as its newly synthesised analogues (5a–i) was evaluated in vitro against the three human breast cancer cell lines MDA-MB-231 (TNBC), T47D (ER^+, HER^−), and BT474 (ER^+, HER^+) as well as a human pancreatic cancer cell line MIAPaCa2. The seeding of the corresponding cell lines started one day before incubation, which lasted for 72 h with the different concentrations of the tested compounds. CellTiter Glo reagent (25 μL) was added to the cell plate. The luminescence was analysed after 10 min using a PerkinElmer Envision instrument. The test compounds were used at ten different triplicate concentrations in half log increments up to 100 μM."}, "T47D": {"tested_on": "T47D", "test": "Cell viability assay (CellTiter Glo), T47D", "type": "cell-based, human", "settings": "Homo sapiens, T47D, 72 h, 72 h incubation, mean of independent triplicate experiments, read-out: In vitro anti-proliferative activity IC50, T47D ER+ PR+/- HER-", "procedure": "as §1"}, "BT474": {"tested_on": "BT474", "test": "Cell viability assay (CellTiter Glo), BT474", "type": "cell-based, human", "settings": "Homo sapiens, BT-474, 72 h, 72 h incubation, mean of independent triplicate experiments, read-out: In vitro anti-proliferative activity IC50, BT474 ER+ PR+/- HER+", "procedure": "as §1"}, "MIAPaCa2": {"tested_on": "MIAPaCa2", "test": "Cell viability assay (CellTiter Glo), MIAPaCa2", "type": "cell-based", "settings": "Homo sapiens, MIA PaCa-2, 72 h incubation, mean of independent triplicate experiments, read-out: In vitro anti-proliferative activity IC50, MIAPaCa2", "procedure": "as §1"}, "[2]": {"tested_on": "MDA-MB-231, T47D, BT474, and MIAPaCa2", "test": "Cell viability assay, statements across the four cell lines", "type": "cell-based, human", "settings": "three human breast and one pancreatic cancer cell line, up to 100 μM", "procedure": "as §1"}, "MDA-MB-231 cells [3]": {"tested_on": "MDA-MB-231 cells", "test": "Cell proliferation assay (7-day cell counting)", "type": "cell-based, human", "settings": "7-day proliferation, 1 μM, vs vehicle-only control", "procedure": "To assess proliferation, cells were seeded at 4.2 × 10^5 cells/mL in 24-well plates. Following 24 h, the media were replaced with fresh RPMI + 5% FCS, in the presence or absence of treatments and a selection of wells counted (day 0 counts). Cells were subsequently counted each day up to 7 days to assess proliferation. Briefly, this entailed the removal of old media and the addition of trypsin/EDTA in order to lift cells before passing gently through a 25 G needle to achieve a single-cell suspension. The resulting solution was then added to isoton in a counting cup and the cell number was determined using a Coulter Multisizer III (Beckman Coulter Life Sciences, Indianopolis, IN, USA) Each well was counted twice with all conditions performed in triplicate."}, "MDA-MB-231 cells [4]": {"tested_on": "MDA-MB-231 cells", "test": "Boyden chamber migration", "type": "cell-based, human", "settings": "18 h Boyden chamber", "procedure": "Migration was assessed utilising 24-well, transmembrane permeable support plates (Corning Lifesciences, Corning, New York, NY, USA) with 6.5 mm microporous membrane (8 μm pore size) inserts, each coated with 10 μg/mL fibronectin in sterile PBS. Inserts were placed into wells containing RPMI + 5% FCS (± treatments), before cells in serum-free RPMI were seeded into the top portion of each insert at a density of 50,000 cells/mL. Cells were then incubated at 37 °C and 5% CO2 for 18 h. After this migratory period was completed, cells were fixed to the underside of the inserts in 3.7% PFA in PBS and stained with 0.5% crystal violet solution. Resulting inserts were then imaged using a standard light microscope."}, "FAK": {"target": "T1, FAK (Homo sapiens, UniProt Q05397)", "T1 construct": "in an in vitro model of TNBC, MDA-MB-231; endogenous in cells; host or cells: MDA-MB-231 (human triple negative breast cancer cells)", "test": "Western blotting of FAK activity", "type": "cell-based", "settings": "MDA-MB-231, Western blot", "excerpt": "This was expected, given that this compound limits protein–protein scaffolding interaction rather than kinase activity and subsequent phosphorylation of key FAK residues."}, "MDA-MB-231 cells [5]": {"tested_on": "MDA-MB-231 cells", "test": "Immunofluorescence of active FAK (FAK Y861) and vinculin", "type": "cell-based, human", "procedure": "The resulting fixed cells were subsequently permeabilised with 0.2% Triton-X100 in PBS for 8 min. This was proceeded by a 40 min block in 10% normal goat serum (in 1% BSA in PBS) prior to 30 min primary antibody incubation. Both FAK^Y861 and vinculin antibodies were diluted to working concentration (1:100 and 1:200, respectively) in 1% BSA in PBS. […] Slides were viewed using a 63X oil immersion lens on a Leica DM IRE2 microscope (Leica Microsystems, Wetzlar, Germany)."}, "MDA-MB-231 [6]": {"tested_on": "MDA-MB-231", "test": "Preliminary in vitro profiling of virtual hits", "type": "cell-based, human", "excerpt": "Approximately 210,000 small molecules from the SPECS virtual library of compounds were imported, rendered, and minimised using a MMFF94x force field and run in a virtual screening simulations programme using Glide SP within Maestro software (Glide, version 9.5, Schrödinger; http://www.schrodinger.com). These compounds underwent four stages of filtration including prefiltration of the non-drug-like compounds in accordance with Lipinski’s rules and excluding chemically unstable and potentially toxic groups. This was followed by high throughput virtual screening (HTVS), standard precision virtual screening (SPVS) and extra precision virtual screening (XPVS). Each compound was positioned in the chosen pocket, which was made up of the area surrounding the three amino acids Asp 1036, Ser 910, and Lys 1032 within a 12 A° radius and scored for electrostatic and van der Waals interactions as implemented in the Schrodinger virtual screening package (version 9.5). […] These 25 hits underwent preliminary in vitro profiling in the metastatic triple negative breast cancer (TNBC) cell line (MDA-MB-231) for antiproliferative and antimigratory properties."}, "hERG potassium channel": {"target": "hERG potassium channel (Homo sapiens, UniProt Q12809)", "sequence (Q12809 whole entry)": "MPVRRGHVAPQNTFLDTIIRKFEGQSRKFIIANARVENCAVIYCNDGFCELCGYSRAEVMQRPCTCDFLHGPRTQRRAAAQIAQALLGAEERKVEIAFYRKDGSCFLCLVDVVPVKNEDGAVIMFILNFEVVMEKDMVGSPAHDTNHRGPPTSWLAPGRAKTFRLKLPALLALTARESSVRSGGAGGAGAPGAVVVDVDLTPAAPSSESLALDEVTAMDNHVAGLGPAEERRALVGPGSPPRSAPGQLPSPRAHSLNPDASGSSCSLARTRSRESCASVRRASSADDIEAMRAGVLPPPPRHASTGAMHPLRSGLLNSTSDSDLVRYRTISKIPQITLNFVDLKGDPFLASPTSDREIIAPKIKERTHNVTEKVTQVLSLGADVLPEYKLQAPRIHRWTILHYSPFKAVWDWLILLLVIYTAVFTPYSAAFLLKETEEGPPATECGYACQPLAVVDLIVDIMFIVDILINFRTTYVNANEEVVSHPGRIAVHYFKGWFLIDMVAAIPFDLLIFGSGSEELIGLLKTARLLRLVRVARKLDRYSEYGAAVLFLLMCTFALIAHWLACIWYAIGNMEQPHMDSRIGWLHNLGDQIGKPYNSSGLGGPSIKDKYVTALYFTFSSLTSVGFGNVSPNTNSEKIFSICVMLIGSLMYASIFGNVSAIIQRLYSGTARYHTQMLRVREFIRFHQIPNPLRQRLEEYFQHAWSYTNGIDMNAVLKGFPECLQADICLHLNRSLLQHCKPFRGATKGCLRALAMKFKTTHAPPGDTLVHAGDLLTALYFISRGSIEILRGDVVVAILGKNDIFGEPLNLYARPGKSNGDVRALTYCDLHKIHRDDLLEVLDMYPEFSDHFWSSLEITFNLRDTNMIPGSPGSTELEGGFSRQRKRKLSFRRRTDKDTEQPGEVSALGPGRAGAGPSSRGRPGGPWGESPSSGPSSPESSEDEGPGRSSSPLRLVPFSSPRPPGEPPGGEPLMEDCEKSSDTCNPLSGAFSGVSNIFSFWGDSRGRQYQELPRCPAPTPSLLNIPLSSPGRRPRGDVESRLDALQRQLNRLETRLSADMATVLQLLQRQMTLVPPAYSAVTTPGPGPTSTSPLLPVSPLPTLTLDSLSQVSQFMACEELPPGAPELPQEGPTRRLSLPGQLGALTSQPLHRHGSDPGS", "test": "hERG channel inhibition (IonWorks automated patch clamp, CHO-hERG cells)", "quoted_text": "Mammalian cells expressing the hERG potassium channel were dispensed into 384-well planar arrays and hERG tail-currents measured by whole-cell voltage-clamping. A range of concentrations of the test compound was then added to the cells and a second recording of the hERG current was made. […] IC50 is delivered, standard error (SE IC50), and n (number of data points used to calculate IC50) for the test compound. The experiments were performed on an Ion Works TM automated patch clamp instrument (Molecular Devices LLC (San Jose, California, United States)), which simultaneously performs electrophysiology measurements for 48 single cells in a specialised 384-well plate (PatchPlateTM(manufacturer, city, state if USA or Canada, country)). All cell suspensions, buffers, and test compound solutions were at room temperature during the experiment.\nThe cells used were Chinese hamster ovary (CHO) cells stably transfected with hERG (cell-line obtained from Cytomyx, UK). A single-cell suspension was prepared in extracellular solution (Dulbecco’s phosphate buffered saline with calcium and magnesium pH 7.2) and aliquots added automatically to each well of a Patch Plate TM. The cells were then positioned over a small hole at the bottom of each well by applying a vacuum beneath the plate to form an electrical seal. The vacuum was applied through a single compartment common to all wells which was filled with intracellular solution (buffered to pH 7.2 with HEPES). The resistance of each seal was measured via a common ground-electrode in the intracellular compartment and individual electrodes placed into each of the upper wells.\nElectrical access to the cell was then achieved by circulating a perforating agent, amphotericin B, underneath the PatchPlateTM. The pre-compound hERG current was then measured. An electrode was positioned in the extracellular compartment and a holding potential of −80 mV applied for 15 s. The hERG channels were then activated by applying a depolarising step to +40 mV for 5 s and then clamped at −50 mV for 4 s to elicit the hERG tail current, before returning to −80 mV for 0.3 s.\nThe Ion Works TM instrument automatically adds test compound dilutions to the upper wells of the PatchPlateTM. The test compound was left in contact with the cells for 300 s before recording currents using the same voltage-step protocol as in the pre-compound scan.\nEach concentration was tested in 4 replicate wells on the PatchPlateTM (maximum of 24 data points). Filters were applied to ensure only acceptable cells were used to assess hERG inhibition.\nFor each replicate, the hERG response was calculated using the following equation:% hERG response = [Post-compound current (nA)/Pre-compound current (nA)] × 100(5)"}, "[7]": {"settings": "MDA-MB-231, 1 h serum stimulated"}}, "data": [{"compound": "CC(C)(C)c1ccc(C(CN)c2ccc(Cl)cc2)cc1", "note": "(stereo not drawn) [Compound I]", "values": [{"measurement": "IC50", "setting": "MDA-MB-231 [1]", "result": 6.37, "unit": "µM"}, {"measurement": "IC50", "setting": "T47D", "result": 6.71, "unit": "µM"}, {"measurement": "IC50", "setting": "BT474", "result": 2670, "unit": "nM"}, {"measurement": "IC50", "setting": "MIAPaCa2", "result": 5.66, "unit": "µM"}, {"measurement": "Anti-proliferative activity (in words) across the four cell lines", "setting": "[2]", "result": "low micromolar antiproliferative activity"}, {"measurement": "Proliferation rates of MDA-MB-231 cells", "setting": "MDA-MB-231 cells [3]", "result": "significantly reduce proliferation rates"}, {"measurement": "Serum-stimulated migration", "setting": "MDA-MB-231 cells [4]", "result": "significant reduction in serum-stimulated migration"}, {"measurement": "Activity of FAK Y397 / FAK Y925 (phosphorylation)", "setting": "FAK", "result": "no significant changes"}, {"measurement": "Stability of total FAK protein", "setting": "FAK", "result": "no changes in the stability of total FAK protein"}, {"measurement": "Number of focal adhesions/cell", "setting": "MDA-MB-231 cells [5]; [7]", "result": "significant increase in focal adhesions"}, {"measurement": "Size of focal adhesions", "setting": "MDA-MB-231 cells [5]; [7]", "result": "no effect on the size of focal adhesions"}, {"measurement": "Localisation of FAK to the cell periphery", "setting": "MDA-MB-231 cells [5]; MDA-MB-231, 1 h serum stimulated, vs vehicle-only controls", "result": "increased localisation of FAK to the cell periphery"}, {"measurement": "Active FAK throughout the cytoplasm", "setting": "MDA-MB-231 cells [5]; MDA-MB-231, versus PF271 treated cells", "result": "significantly more active FAK displayed throughout the cytoplasm"}, {"measurement": "Antiproliferative and antimigratory properties (preliminary profiling)", "setting": "MDA-MB-231 [6]", "result": "low micromolar antiproliferative and antimigratory properties exceeding those of chloropyramine (C4)"}, {"measurement": "IC50", "setting": "hERG potassium channel", "result": 5.47, "unit": "µM"}]}]}
